This note sets out measurements from US20220218679A1, “NOVEL COMPOUNDS AND PHARMACEUTICAL COMPOSITIONS THEREOF FOR THE TREATMENT OF INFLAMMATORY DISORDERS” (Galapagos NV, priority 2019, published 2022).

The structures appear in SMILES notation.

For series [1], the system named is CL097 triggered IFNα release in human whole blood. Briefly: Ex vivo human IFNα release inhibition (human whole blood assay). Conditions: Homo sapiens, CL097 2 μg/mL, 3 h 30 min at 37° C. It is filed as cell-based. From the text: 4.10.1. Ex Vivo Human IFNα and TNFα Release Inhibition (Human Whole Blood Assay)
The aim of the assay is to evaluate the activity of compounds of the invention on the activated TLR/IRAK-4 pathway in an ex vivo human whole blood setting. Toll-like receptors (TLRs) are pattern recognition receptors that recognize a wide variety of microbial molecules, called pathogen-associated molecular patterns (PAMPs). Human TLR7 and TLR8 recognize imidazoquinoline compounds (e.g., CL097—CAS n #1026249-18-2) and single stranded RNAs as their natural ligands. Activation of TLRs leads to the production of several cytokines (e.g., IFNα, TNFα, IL-8, IL-6) by the TLR agonist-treated cells, whereas IRAK4 leads to the production of IFNα. Cytokine release is used as readout in this assay and represents a measure for the level of inhibition of the TLR/IRAK-4 pathway by the tested compound. It should be noted that in the context of the complete organism, other sources for these cytokines exist that are not dependent on the TLR/IRAK-4 pathway, such as e.g., macrophages (upon activation of the Fcγ receptor (Yan et al., 2012)) or T cells (upon activation of the T cell receptor (Brehm et al., 2005)).
4.10.1.1. Experimental Design
Blood was collected from healthy volunteers into lithium heparin tubes by venipuncture, then gently inverted several times to prevent clotting and incubated for at least 15 min at 37° C. on a rocking mixer shaker. Then, 100 μL of blood was dispensed into polypropylene 96-well microplate and pre-incubated in duplicate with 0.3% DMSO or test compound at different concentrations (from 30 to 0.01 μM, 3-fold dilutions to get 0.3% DMSO at the final) for 15 min at 37° C. After this pre-incubation, blood was triggered with CL097 (2 μg/mL from 1 mg/mL solution in water; InvivoGen, tlrl-c97) for 3 h 30 min at 37° C. Microtubes were centrifuged at 5000×g for 10 min at 4° C. and approximately 40 μL of plasma were collected into a polystyrene 96-well plate. Plasma could be analyzed freshly, within 30 min after triggering, or frozen at −80° C. Finally, the quantification of TNFα and IFNα were performed in the plasma using AlphaLISA Kit for TNFα and IFNα according to the manufacturer's instructions and read on the Ensight (PerkinElmer).
A standard curve was created by plotting on log-log the mean […] on the y-axis against the concentration on the x-axis and a 4-parameters logistic regression (4PL) was made through the points. For each blood sample, the IFNα concentrations of the samples were determined from the fit. Data were then expressed as a percentage of inhibition (PIN) for each replicate using the formula:
With mean IFNα with CL097=mean IFNα concentration of replicate samples triggered with CL097; IFNαsample1=IFNα concentration of sample 1; mean IFNα with vehicle=mean IFNα concentration of replicate samples treated with vehicle.
Curve fitting for pIC50 determination were generated using mean PIN±sem. Graphs and pIC50 calculations were derived using Prism 5.03 software (GraphPad).

Series [2] deals with Mouse Hepatocyte. Briefly: Metabolic stability in hepatocytes (mouse). Type of series: in vitro ADME. Conditions: 1 μM test compound, cryopreserved mouse hepatocytes. The procedure: 4.6. Metabolic Stability in Hepatocytes
The aim of this assay is to determine the metabolic stability of the compound in hepatocytes (cryopreserved) of different species. Low hepatocyte stability may result in the formation of unwanted metabolites, high clearance, and therefore is not desirable.
The decrease in parent was assessed by measuring the percentage remaining by LC-MS/MS analysis.
A 10 mM stock solution of test compound in DMSO was first diluted in DMSO to 3 mM, and then in modified Krebs-Henseleit buffer (Sigma, K3753) to 5 μM. This compound dilution was added to a suspension of pooled cryopreserved hepatocytes (BioreclamationIVT) at 37° C. under gentle shaking.
Final reaction conditions were: 1 μM of test compound, 0.03% DMSO, 0.5 million viable hepatocytes/mL, and 75 μL incubation volume.
Testosterone (1 μM) and 7-hydroxycoumarin (1 μM) were used, respectively as phase I and phase II metabolic reaction controls.
After 0, 10, 20, 45, 90, 120 and 180 min of incubation, the reaction was terminated with 225 μL of MeCN:MeOH (2:1) containing 100 ng/mL of diclofenac as analytical internal standard. Samples were mixed, centrifuged and the supernatant analyzed by LC-MS/MS.
The instrument responses (ratios of test compound and internal standard peak areas) were referenced to the zero time point samples (considered as 100%) in order to determine the percentage of compound remaining.
Plots of percentage compound remaining were used to determine the intrinsic clearance in the hepatocyte incubations using the following equations:
Scaled Clint [L/h/kg]=Clint[μL/min/10^6 cells]*#(10^6) cells/g liver*60*( 1/10^6) Scaled Clint unbound [L/h/kg]=Clint [L/h/kg]/Fu,inc where: fu,inc equals hepatocyte binding, derived from microsomal binding (fu,mic) by following equation: […]

For orientation: IC50 means the midpoint of a concentration-inhibition curve. `CCOc1cn2nc(CCC(C)(C)O)cc2cc1NC(=O)c1cccn(C(F)F)c1=O` [Compound 9, 1-(difluoromethyl)-N-[6-ethoxy-2-(3-hydroxy-3-methyl-butyl)pyrazolo[1,5-a]pyridin-5-yl]-2-oxo-pyridine-3-carboxamide] registered an IC50 in series [1] of 1000 to 5000 nM. For the same compound, in series [2], the “Mouse Hepatocyte stability (Perc. remaining at 90 min)” value is 83.65 Perc.

Take `CCOc1cn2nc(CCC(C)(C)O)cc2cc1NC(=O)c1cccn(C)c1=O` [Compound 18, N-[6-ethoxy-2-(3-hydroxy-3-methyl-butyl)pyrazolo[1,5-a]pyridin-5-yl]-1-methyl-2-oxo-pyridine-3-carboxamide]: the IC50 in series [1] was 1000 to 5000 nM. Also, in series [2], the “Mouse Hepatocyte stability (Perc. remaining at 90 min)” value was 93 Perc.

With `NC(=O)c1cn2nc(C3CCOCC3)cc2cc1NC(=O)c1cccc(C(F)F)n1` [Compound 16, 5-[[6-(difluoromethyl)pyridine-2-carbonyl]amino]-2-tetrahydropyran-4-yl-pyrazolo[1,5-a]pyridine-6-carboxamide], the “Mouse Hepatocyte stability (Perc. remaining at 90 min)” value in series [2] was 51.75 Perc.

Turning to `COc1cn2nc(CCC(C)(C)O)cc2cc1NC(=O)c1cccn(C2CCC2)c1=O` [Compound 21, 1-cyclobutyl-N-[2-(3-hydroxy-3-methyl-butyl)-6-methoxy-pyrazolo[1,5-a]pyridin-5-yl]-2-oxo-pyridine-3-carboxamide], the IC50 in series [1] was 1000 to 5000 nM. For the same compound, the “Mouse Hepatocyte stability (Perc. remaining at 90 min)” value in series [2] amounted to 49.45 Perc.

Turning to `CCOc1cn2nc(CCC(C)(C)O)cc2cc1NC(=O)c1cccn(C2CC2)c1=O` [Compound 17, 1-cyclopropyl-N-[6-ethoxy-2-(3-hydroxy-3-methyl-butyl)pyrazolo[1,5-a]pyridin-5-yl]-2-oxo-pyridine-3-carboxamide], in series [1], the IC50 was 1000 to 5000 nM. Also, the “Mouse Hepatocyte stability (Perc. remaining at 90 min)” value in series [2] came out at 93 Perc.

For the compound `COc1cn2nc(CCC(C)(C)O)cc2cc1NC(=O)c1cccn(C(F)F)c1=O` [Compound 7, 1-(difluoromethyl)-N-[2-(3-hydroxy-3-methyl-butyl)-6-methoxy-pyrazolo[1,5-a]pyridin-5-yl]-2-oxo-pyridine-3-carboxamide], in series [1], the IC50 is 1000 to 5000 nM. In series [2], the “Mouse Hepatocyte stability (Perc. remaining at 90 min)” value is recorded as 108.25 Perc.

For `COc1cn2nc(CCC(C)(C)O)cc2cc1NC(=O)c1cccn(C)c1=O` [Compound 2, N-[2-(3-hydroxy-3-methylbutyl)-6-methoxypyrazolo[1,5-a]pyridin-5-yl]-1-methyl-2-oxopyridine-3-carboxamide], the concentration for half-maximal inhibition (IC50) in series [1] fell in the range of 500 to 1000 nM. The “Mouse Hepatocyte stability (Perc. remaining at 90 min)” value in series [2] is on record as 94.1 Perc.

In series [1], `CNC(=O)c1cn2nc(C3CCN(C)CC3)cc2cc1NC(=O)c1cccc(C(F)(F)F)n1` [Compound 12, N-methyl-2-(1-methyl-4-piperidyl)-5-[[6-(trifluoromethyl)pyridine-2-carbonyl]amino]pyrazolo[1,5-a]pyridine-6-carboxamide] displayed an IC50 of 1000 to 5000 nM. The “Mouse Hepatocyte stability (Perc. remaining at 90 min)” value in series [2] is recorded as 97.05 Perc.

In the case of `CC(C)(O)CCc1cc2cc(NC(=O)c3cccc(C(F)F)n3)c(C(N)=O)cn2n1` [Compound 20, 5-[[6-(difluoromethyl)pyridine-2-carbonyl]amino]-2-(3-hydroxy-3-methyl-butyl)pyrazolo[1,5-a]pyridine-6-carboxamide], the IC50 in series [1] fell in the range of 1000 to 5000 nM. Besides, the “Mouse Hepatocyte stability (Perc. remaining at 90 min)” value in series [2] was 80.9 Perc.

On to `COc1c(NC(=O)c2cccn(C3CC3)c2=O)cc2cc(CCC(C)(C)O)nn2c1C` [Compound 13, 1-cyclopropyl-N-[2-(3-hydroxy-3-methyl-butyl)-6-methoxy-7-methyl-pyrazolo[1,5-a]pyridin-5-yl]-2-oxo-pyridine-3-carboxamide], for which the “Mouse Hepatocyte stability (Perc. remaining at 90 min)” value in series [2] came out at 87.8 Perc.

For `CNC(=O)c1cn2nc(C3CCCS(=O)(=O)C3)cc2cc1NC(=O)c1cccc(C(F)(F)F)n1` (stereo not shown) [Compound 8, 2-(1,1-dioxothian-3-yl)-N-methyl-5-[[6-(trifluoromethyl)pyridine-2-carbonyl]amino]pyrazolo[1,5-a]pyridine-6-carboxamide], the “Mouse Hepatocyte stability (Perc. remaining at 90 min)” value in series [2] worked out at 75.15 Perc.

On to `COc1cn2nc(CCC(C)(C)O)cc2cc1NC(=O)c1cccc(C(F)(F)F)n1` [Compound 3, N-[2-(3-hydroxy-3-methylbutyl)-6-methoxypyrazolo[1,5-a]pyridin-5-yl]-6-(trifluoromethyl)pyridine-2-carboxamide], for which the IC50 in series [1] lay within 1000 to 5000 nM. Besides, in series [2], the “Mouse Hepatocyte stability (Perc. remaining at 90 min)” value is given as 10.17 Perc.

In series [1], `CNC(=O)c1cn2nc(CCC(C)(C)O)cc2cc1NC(=O)c1cccc(C(F)(F)F)n1` [Compound 5, 2-(3-hydroxy-3-methylbutyl)-N-methyl-5-[[6-(trifluoromethyl)pyridine-2-carbonyl]amino]pyrazolo[1,5-a]pyridine-6-carboxamide] returned an IC50 of 1000 to 5000 nM. Further, the “Mouse Hepatocyte stability (Perc. remaining at 90 min)” value in series [2] is given as 76.25 Perc.

Turning to `COc1cn2nc(CCC(C)(C)O)cc2cc1NC(=O)c1cccn(C2CC2)c1=O` [Compound 1, 1-cyclopropyl-N-[2-(3-hydroxy-3-methylbutyl)-6-methoxypyrazolo[1,5-a]pyridin-5-yl]-2-oxopyridine-3-carboxamide], the IC50 in series [1] was 0.1 to 500 nM. The “Mouse Hepatocyte stability (Perc. remaining at 90 min)” value in series [2] was 99.45 Perc.
